Target: T1, Δ^5 -Lipoxygenase (Rattus norvegicus, UniProt P12527)
T1 construct: using rat basophil leukemia cells (RBL-1 cells) as the enzyme source; endogenous in cells; host or cells: RBL-1 (rat basophil leukemia) cells, 49,300×g supernatant of homogenate
T1 sequence (P12527 1-673): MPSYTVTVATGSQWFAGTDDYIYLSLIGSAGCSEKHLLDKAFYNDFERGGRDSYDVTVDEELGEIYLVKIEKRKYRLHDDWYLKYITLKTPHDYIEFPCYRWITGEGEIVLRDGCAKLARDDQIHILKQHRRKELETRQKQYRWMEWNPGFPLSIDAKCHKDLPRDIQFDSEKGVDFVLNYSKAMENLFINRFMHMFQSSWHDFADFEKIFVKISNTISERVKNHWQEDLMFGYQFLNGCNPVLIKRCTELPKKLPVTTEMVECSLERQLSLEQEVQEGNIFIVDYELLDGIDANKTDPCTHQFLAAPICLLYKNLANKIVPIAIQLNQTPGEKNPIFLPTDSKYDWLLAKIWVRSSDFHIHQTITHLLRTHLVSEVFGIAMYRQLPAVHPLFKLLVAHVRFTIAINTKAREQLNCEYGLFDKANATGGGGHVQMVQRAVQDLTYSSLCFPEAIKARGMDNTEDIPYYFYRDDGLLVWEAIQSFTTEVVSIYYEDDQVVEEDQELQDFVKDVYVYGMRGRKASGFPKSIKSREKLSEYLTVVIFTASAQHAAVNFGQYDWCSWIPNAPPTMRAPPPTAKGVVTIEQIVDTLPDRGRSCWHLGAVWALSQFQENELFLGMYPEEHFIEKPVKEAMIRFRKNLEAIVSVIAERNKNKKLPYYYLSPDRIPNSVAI
Experiment: Δ^5 -Lipoxygenase Inhibition
Assay type: biochemical
Details: RBL-1 cell supernatant; for inhibition at 10 µM: at 10^-5 M
Description: Δ^5 -Lipoxygenase inhibition was measured by following the conversion of ^14 C-arachidonic acid to ^14 C-5-HETE, using rat basophil leukemia cells (RBL-1 cells) as the enzyme source. These cells were maintained in stationary stock cultures and grown in spinner cultures prior to isolation by centrifugation at 4° C. at 1,500×g for 10 minutes. The cells were washed three times at 4° C. with 0.05M Tris HCl (ph 7.2) containing 1 mM EDTA, 14 μM indomethacin and 0.9% NaCl. They were then homogenized at 0°-4° C. using a glass/glass homogenizer in 0.05M Tris-HCl (pH 7.2) containing 1 mM EDTA and 14 μM indomethacin. The homogenate was then centrifuged at 49,300×g for 20 minutes (0°-4° C.) and the resulting supernatant frozen in small aliquots in a dry ice/acetone bath prior to storage at -80° C. Under these conditions, the enzyme was stable to freezing and thawing and to preincubation for 10 minutes at 30° C.
For enzyme assay, 100-200 μl of enzyme was incubated in the presence and absence of test compound (prepared in DMSO) for 10 minutes at 30° C. in 0.05M Tris-HCl buffer (pH 7.2) containing 1 mM glutathione, 2 mM CaCl2, 14 μM indomethacin and 0.25 and 0.5 mM EDTA (final volume 400 μl). The final DMSO concentration in these assays was 4%. The assay was initiated by the addition of 100 μl ^14 C-arachidonic acid (58 mCi/mmole) and incubations were carried out for 10 minutes at 37° C. in a shaking water bath. The reactions were stopped by the simultaneous addition of 4.0 ml of diethylether and 100 μl of 1.0 m citric acid, while the tubes were vigorously vortexed. The ^14 C-5-HETE generated by the enzyme was extracted into the acidified ether layer which was separated from the aqueous layer by freezing the assay tubes in a dry ice/acetone bath prior to decanting the liquid ether layer. The ether layer was evaporated to dryness under N2, the residue dissolved in 65 μl chloroform:methanol (2:1 v/v), prior to separating ^14 C-5-HETE from other ^14 C-labeled compounds on silica gel impregnated glass fiber TLC plates utilizing an elution solvent of isoctane:methylethylketone:acetic acid (100:9:1 v/v). ^14 C-5-HETE was identified by its co-chromatography with a chemically synthesized standard. The radioactive peaks of the chromatogram were cut out and the radioactivity was quantitated by liquid scintillation counting. The amount of 5-HETE obtained per sample was expressed as the percent of total and was calculated in the basis of: [formula] in order to evaluate the effect of the test compounds, the mean percent inhibition of ^14 C-5-HETE production was calculated. The IC50 for a drug was determined from a linear regression analysis of a plot of the mean percent inhibition vs drug concentration.

| IC50 [nM] | inhibition at 10 µM [%] | inhibition at 1 µM (at 10^-6 M) [%] | Compound |
| --- | --- | --- | --- |
| 800 | 100 |  | CC(C)c1ccc2ncn(/C=C/C(=O)NCCCCc3ccccn3)c(=O)c2c1 [drawing 17] |
|  | 0 |  | CC(C)c1ccc2ncn(/C=C/C(=O)NCCCCn3ccnc3)c(=O)c2c1 [drawing 15] |
|  | 84 | 27 | CC(C)c1ccc2ncn(/C=C/C(=O)NCCCCc3cccnc3)c(=O)c2c1 [drawing 12] |
